The values that follow come from patent US6087355A, “Cephalosporin antibiotics” (Microcide Pharmaceuticals, Inc., priority 1996, dated 2000).

The subject of assay [1] is E. faecium A491(Amp^R). Nature of the assay: In vitro MIC, agar dilution. The assay is classed as cell-based. Particulars: Enterococcus faecium, read-out: minimum inhibitory concentration (MIC). The method, then: (§1) The compounds of the invention were evaluated against several β-lactamresistant (for example methicillin-resistant, vancomycin resistant, and/or ampicillin-resistant) bacteria strains by determining the minimum inhibitory concentration (MIC, μg/ml) of each compound with respect to each strain. The MIC, the lowest concentration of antibiotic which inhibits growth of the test organism, was determined by the agar dilution method.
(§2) To determine the MIC for bacterial isolates, the test compound was incorporated in a series of two-fold dilutions into liquified Mueller-Hinton agar. Upon solidification, a number of different bacterial strains were spot inoculated with a replicating device onto the agar surface.
(§3) Aliquots of antimicrobial agents were prepared in phosphate buffered saline (PBS) at pH 7.2. Tween 20 or DMSO was used as a solubilizing vehicle as needed. Standard methods of vortexing, sonicating and gentle heat were used to facilitate solubilizing the test agent. […] A 1.28 mg/mL stock solution was used with a subsequent highest working concentration of 128 μg/mL. Serial two-fold dilutions were done through ≤0.25 μg/mL. Each drug level was tested in duplicate. Two-fold drug dilutions were done in sterile 50 mL tubes with a final drug volume of 5 mL. Upon the addition of 45 mL of molten agar, a 10-fold dilution resulted. Two, 25 mL. plates were then poured into 15×150 mm square Petri plates with grids and allowed to harden.
(§4) A control plate with a reference drug, either cefotaxime, vancomycin or imipenem, was used as the positive growth control. Stock concentrations of reference antibiotics were prepared and frozen at -80° C. […] All test plates were used within 24 hours of preparation.
(§5) Satisfactory results were obtained where the inoculum contained about 10^4 colony forming units (cfu)±0.5 logs. Starting with pure cultures of the test isolates on agar plates, a few isolated colonies were transferred to a tube of nutrient broth and allowed to grow 4-6 hours at 35-36° C. to reach log-phase growth. Dropwise addition of the broth culture to PBS was done to match a 0.5 McFarland turbidity standard equal to 10^8 cfu/mL. This was further diluted ten-fold in PBS to reach a working inoculum concentration of 10^7 cfu/mL. When 1 μL of the working inoculum was applied to the agar surface a concentration of about 10^4 cfu per spot was obtained.
(§6) Disposable sterile 1 μL loops were used to inoculate test plates, with each isolate in a designated grid on the agar plate. An alternate method of inoculation involved the use of a replica plater, a device with 48 steel pins allowing the simultaneous inoculation of multiple isolates. After the spots had dried, the plates were incubated at 35-36° C. for 16-20 hours. Endpoints were assessed as the minimum inhibitory concentration (MIC) of antimicrobial agent.
In general terms: Agar dilution tests growth on a series of plates holding different concentrations.

In assay [2] the test system is S. aureus ATCC 13709(Meth^S). Nature of the assay: In vitro MIC, agar dilution. The assay is classed as cell-based. Particulars: Staphylococcus aureus, ATCC13709, S. aureus ATCC 13709(Meth^S); read-out: minimum inhibitory concentration (MIC). The protocol: as §1, §2, §3, §4, §5, §6
Assay [3] deals with E. faecalis ATCC 29212. Nature of the assay: In vitro MIC, agar dilution. The assay is classed as cell-based. Particulars: Enterococcus faecalis, ATCC29212, read-out: minimum inhibitory concentration (MIC). The protocol: as §1, §2, §3, §4, §5, §6
For assay [4], the system named is E. faecalis VanB(Van^R). Nature of the assay: In vitro MIC, agar dilution. The assay is classed as cell-based. The note with it: Enterococcus faecalis, read-out: minimum inhibitory concentration (MIC). The protocol: as §1, §2, §3, §4, §5, §6
Assay [5] deals with S. aureus 76(Meth^R)(lac^+). The assay is described as follows: In vitro MIC, agar dilution. The assay is classed as cell-based. Particulars: Staphylococcus aureus, read-out: minimum inhibitory concentration (MIC). The protocol: as §1, §2, §3, §4, §5, §6
Assay [6] deals with S. haemolyticus 05(Meth^R). The assay is described as follows: In vitro MIC, agar dilution. The assay is classed as cell-based. The note with it: Staphylococcus haemolyticus, read-out: minimum inhibitory concentration (MIC). The protocol: as §1, §2, §3, §4, §5, §6
For assay [7], the system named is E. faecium ATCC 35667. Nature of the assay: In vitro MIC, agar dilution. The format is cell-based. Particulars: Enterococcus faecium, ATCC35667, read-out: minimum inhibitory concentration (MIC). The method, then: as §1, §2, §3, §4, §5, §6
Assay [8] has as its system S. aureus PC1(Meth^S)(lac^+). The assay is described as follows: In vitro MIC, agar dilution. The assay is classed as cell-based. The note with it: Staphylococcus aureus, read-out: minimum inhibitory concentration (MIC). The method, then: as §1, §2, §3, §4, §5, §6
Assay [9] has as its system S. aureus ATCC 33593(Meth^R). Nature of the assay: In vitro MIC, agar dilution. The assay is classed as cell-based. The note with it: Staphylococcus aureus, ATCC33593, read-out: minimum inhibitory concentration (MIC). The protocol: as §1, §2, §3, §4, §5, §6
The subject of assay [10] is E. faecium VanA(Van^R). The assay is described as follows: In vitro MIC, agar dilution. The note with it: Enterococcus faecium, read-out: minimum inhibitory concentration (MIC). The format is cell-based. The protocol: as §1, §2, §3, §4, §5, §6
The test system of assay [11] is S. aureus ATCC 29213. The assay is described as follows: In vitro MIC, agar dilution. The assay is classed as cell-based. The note with it: Staphylococcus aureus, ATCC29213, read-out: minimum inhibitory concentration (MIC). The protocol: as §1, §2, §3, §4, §5, §6
For assay [12], the system named is E. coli ATCC 25992. Nature of the assay: In vitro MIC, agar dilution. The assay is classed as cell-based. Particulars: Escherichia coli, ATCC25992, read-out: minimum inhibitory concentration (MIC). The protocol: as §1, §2, §3, §4, §5, §6
The subject of assay [13] is P. aeruginosa ATCC 27853. The assay is described as follows: In vitro MIC, agar dilution. The format is cell-based. The note with it: Pseudomonas aeruginosa, ATCC27853, read-out: minimum inhibitory concentration (MIC). The method, then: as §1, §2, §3, §4, §5, §6
The subject of assay [14] is S. aureus Spain #356(Meth^R). The assay is described as follows: In vitro MIC, agar dilution. The assay is classed as cell-based. The note with it: Staphylococcus aureus, read-out: minimum inhibitory concentration (MIC). The protocol: as §1, §2, §3, §4, §5, §6
Assay [15] concerns S. aureus Col(Meth^R)(lac^-). Nature of the assay: In vitro MIC, agar dilution. The format is cell-based. Particulars: Staphylococcus aureus, read-out: minimum inhibitory concentration (MIC). The method, then: as §1, §2, §3, §4, §5, §6
The S. aureus Col strain is a high-level PBP2a producer, whereas S. aureus Col 8A, its isogenic partner, lacks PBP2a.

The test system of assay [16] is S. aureus strain ATCC 13709 (methicillin-susceptible). The assay is described as follows: Murine model for lethal bacteremic peritonitis. The format is in vivo, female Swiss-Webster mice. Particulars: Staphylococcus aureus, 72 h. The protocol: Groups of 5 female Swiss-Webster mice (Simonsen, Gilroy, Calif.) each are challenged by the intraperitoneal (IP) route with tenfold increments of a bacterial inoculum. This permits calculation of the mean lethal dose (LD50) and the LD100. For preliminary evaluation of a new antibiotic, mice are challenged IP with an LD100 titer of bacteria. In two equal doses administered at the time of bacterial challenge and 2 hours later, groups of 10 mice each are treated subcutaneously with two-fold increments of the test drug and an antibiotic of known efficacy in mice and humans (i.e., positive control). Mice are observed for 72 h. Those alive at 72 h are considered long term survivors. The total drug dose in mg/kg that protects 50% of mice in a group from death is termed the mean protective dose (PD50). PD50 s are similarly determined for several pathogens. The quantitative endpoints for the new drug are then compared with those obtained with reference antibiotics.
Six ten-fold dilutions of inoculum suspended in 0.5 mL of sterilized 7% hog gastric mucin (Sigma) are injected IP in groups of 5 mice each. A control group of 5 mice receive mucin alone. Mice are observed for 72 h. Those alive at 72 h are considered long term survivors. The mean lethal dose (LD50) and 100% lethal dose (LD100) are determined by the probit test.
For antibiotic efficacy studies, mice are challenged IP with bacterial titers that will afford an LD100 for the test strain. In two equal doses administered at the time of bacterial challenge and 2 hours later, groups of 10 mice each are treated by the subcutaneous route (SC) with twofold increments of the test antibiotic; another group is treated similarly with a reference antibiotic of known efficacy in animals and man. Drug doses can range from 0.01 to 512 mg/kg. If the drug is poorly soluble, Tween 20 or propylene glycol will be employed to solubilize the drug. Animals are observed for 72 h. The 50% protective dose (PD50) is calculated in mg/kg by the probit method. The PD50 is the same as the 50% effective dose (ED50) and the 50% curative dose (CD50). Samples of blood from the hearts of all animals that die and from half the mice that survive are cultured on brain-heart infusion agar. Animals that received a protective dosage of the test drug will be alive at 72 h, although they may appear moderately ill to very ill during the observation period. […] Most of these mice will die within 6 to 48 h. Those alive at 72 h will be considered long term survivors.
(Compound numbers correspond to those in MIC tables; data reported for challenge with methicillin-susceptible S. aureus strain ATCC 13709.)

Where [17] appears, read: ATCC13709, sc, read-out: Survivors.

Structures can show the parent of a compound that is named as a salt. Where two headings read alike, the source gives them in different places. Some results are limits rather than exact numbers.

Consider `N=CNCCSCc1cnccc1SC1=C(C(=O)O)N2C(=O)[C@@H](NC(=O)/C(=N\O)c3nc(N)sc3Cl)[C@H]2SC1` [Cmpd 31, (7R)-7-[(Z)-2-(2-amino-5-chlorothiazol-4-yl)-2-(hydroxyimino)acetamido]-3-(3-(N-formamidinoyl)aminoethylthiomethylpyrid-4-ylthio)-3-cephem-4-carboxylate, trifluoroacetic acid salt], for which the MIC was found to be 8 µg/mL in [1]; 0.25 µg/mL in [2]; 0.5 µg/mL in assay [3]; 0.25 µg/mL in assay [4]; 2 µg/mL in [5]; 4 µg/mL in assay [6]. Also, the MIC stood at 0.5 µg/mL in [7]; 0.25 µg/mL in assay [8]; 2 µg/mL in assay [9]; 1 µg/mL in assay [10]; 0.25 µg/mL in [11]; 8 µg/mL in [12]. For the same molecule, the figures for the MIC in [13], in [14] and in [15] were more than 32 µg/mL, 2 µg/mL and 2 µg/mL, respectively.
`CC(N)COCc1cnccc1SC1=C(C(=O)O)N2C(=O)[C@@H](NC(=O)/C(=N\O)c3nc(N)sc3Cl)[C@H]2SC1` (stereo partly drawn) [Cmpd 49, (7R)-7-[(Z)-2-(2-amino-5-chlorothiazol-4-yl)-2-(hydroxyimino)acetamido]-3-(3-(2-aminopropyloxymethyl)pyrid-4-ylthio)-3-cephem-4-carboxylate, trifluoroacetic acid salt]: the MIC in assay [1] came to 16 µg/mL; in [2], 0.25 µg/mL; in assay [3], 0.13 µg/mL; in assay [4], 0.13 µg/mL; in assay [5], 2 µg/mL; in assay [6], 4 µg/mL. The MIC in [7] stood at 1 µg/mL; in assay [8], 0.5 µg/mL; in [9] it was 2 µg/mL; in assay [10] it was 2 µg/mL; in assay [11], 0.25 µg/mL; in assay [12] it was 8 µg/mL. Moreover, the results for the MIC in assay [13], in assay [14] and in assay [15] were more than 32 µg/mL, 2 µg/mL and 2 µg/mL, respectively.
What is called ED50 is the dose at which the effect has come halfway, by size or by number of responders. `CN[C@H](CC(C)C)C(=O)N[C@H]1C(=O)N[C@@H](CC(N)=O)C(=O)N[C@H]2C(=O)N[C@H]3C(=O)N[C@H](C(=O)N[C@H](C(=O)O)c4cc(O)cc(O)c4-c4cc3ccc4O)[C@H](O)c3ccc(c(Cl)c3)Oc3cc2cc(c3O[C@@H]2O[C@H](CO)[C@@H](O)[C@H](O)[C@H]2O[C@H]2C[C@](C)(N)[C@H](O)[C@H](C)O2)Oc2ccc(cc2Cl)[C@H]1O` [Vancomycin, vancomycin, reference compound] registered an ED50 in assay [16] (ATCC13709, sc) of 1.94 mg/kg. In addition, in assay [16] (setting [17]), the responders at 0.625 mg/kg worked out at 20%, the responders at 1.25 mg/kg amounted to 20%, the responders at 2.5 mg/kg came out at 40% and the responders at 5 mg/kg was 100%. Besides, the responders at 10 mg/kg in [16] (setting [17]) came out at 100%.
For `CNCC(=O)NCCSCc1cnccc1SC1=C(C(=O)O)N2C(=O)[C@@H](NC(=O)/C(=N\O)c3csc(N)n3)[C@H]2SC1` [Cmpd 18, (7R)-7-[(Z)-2-(aminothiazol-4-yl)-2-(hydroxyimino)acetamido]-3-[3-(N-methylglycyl)aminoethylthiomethylpyrid-4-ylthio]-3-cephem-4-carboxylate, trifluoroacetic acid salt], the responders at 0.3125 mg/kg in assay [16] (ATCC13709, Dose 0.3125 mg/kg, SC, read-out: Survivors) is 30%. For the same molecule, the responders at 0.625 mg/kg in assay [16] (ATCC13709, Dose 0.625 mg/kg, SC, read-out: Survivors) came out at 20%. The responders at 1.25 mg/kg in assay [16] (ATCC13709, Dose 1.25 mg/kg, SC, read-out: Survivors (converted)) is 20%. For the same molecule, the responders at 2.5 mg/kg in assay [16] (ATCC13709, Dose 2.5 mg/kg, SC, read-out: Survivors) turned out to be 20%. In addition, the responders at 5 mg/kg in assay [16] (ATCC13709, Dose 5 mg/kg, SC, read-out: Survivors) worked out at 60%. Moreover, in assay [16] (ATCC13709, SC, two equal doses, IP challenge, read-out: ED50), the ED50 was found to be 4.44 mg/kg. Also, the MIC was more than 32 µg/mL in assay [1]; 1 µg/mL in assay [2]; 0.25 µg/mL in assay [3]; 0.5 µg/mL in [4]; 8 µg/mL in assay [5]; 8 µg/mL in assay [6]. Further, the MIC was 2 µg/mL in assay [7]; 1 µg/mL in [8]; 4 µg/mL in assay [9]; 2 µg/mL in [10]; 1 µg/mL in [11]; 8 µg/mL in [12]. Besides, the MIC in [13] was more than 32 µg/mL; in [14], 8 µg/mL.
